Reference: PubChem BioAssay AID588628 (NMMLSC, 2011)
pEC50: −log10 of the molar value. Where “and” joins values, the source holds several entries; their conditions need not be identical. Equal entries are not always repeated. Calls of active or inactive are those of the source.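 The calls were made as follows: active = fitted EC50 of 10 µM or less with% response changing by at least 30 points across doses; inactive = the rest.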

Biological target: GTPase HRas (Homo sapiens) (UniProt P01112)
Test: activated H-Ras mutant GTP-binding inhibitors, SAR follow-up, biochemical, multiplex bead flow cytometry, round 2 (AID 588628)
Details: bead-based flow cytometry, Bodipy-FL-GTP binding, EDTA

Sequence of GTPase HRas (Homo sapiens) (P01112 whole entry, looked up): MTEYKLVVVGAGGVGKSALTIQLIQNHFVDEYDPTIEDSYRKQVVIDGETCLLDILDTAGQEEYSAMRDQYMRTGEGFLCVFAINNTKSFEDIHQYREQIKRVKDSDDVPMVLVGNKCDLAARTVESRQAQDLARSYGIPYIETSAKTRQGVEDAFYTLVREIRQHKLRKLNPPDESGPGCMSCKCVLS

Row | Compound | pEC50
1 | CC1(C)Cc2c(sc(NC(=S)NC(=O)c3ccc(Br)cc3)c2C(=O)O)CO1 | 6.25
2 | O=C(NC(=S)Nc1sc2c(c1C(=O)O)CCOC2)c1ccccc1 | 7.07 and 6.68
3 | Cc1cccc(C(=O)NC(=S)Nc2sc3c(c2C(=O)O)CC(C)(C)OC3)c1 | 6.07
4 | CC1(C)Cc2c(sc(NC(=S)NC(=O)c3cccc(F)c3)c2C(=O)O)CO1 | 6.27
5 | CC1(C)Cc2c(sc(NC(=O)NC(=O)c3ccccc3)c2C(=O)O)CO1 | 6.08
6 | CC1(C)Cc2c(sc(NC(=S)NC(=O)c3ccccc3Br)c2C(=O)O)CO1 | 5.92
7 | CC1(C)Cc2c(sc(NC(=S)NC(=O)C3CCCCC3)c2C(=O)O)CO1 | 6.23

Next, values leading:

Row | pEC50 | Compound
8 | 6.90 | CC(C)(C)C1Cc2c(sc(NC(=S)NC(=O)c3ccccc3)c2C(=O)O)CO1 (centres undefined)
9 | 7.62 | CC1(C)Cc2c(sc(NC(=S)NC(=O)c3cccs3)c2C(=O)O)CO1
10 | 6.66 | CC1Cc2c(sc(NC(=S)NC(=O)c3ccccc3)c2C(=O)O)CO1 (centres undefined)
11 | 6.56 | COc1ccc(C(=O)NC(=S)Nc2sc3c(c2C(=O)O)CC(C)(C)OC3)cc1
12 | 6.75 | Cc1ccc(C(=O)NC(=S)Nc2sc3c(c2C(=O)O)CC(C)(C)OC3)cc1
13 | 6.69 | COc1cccc(C(=O)NC(=S)Nc2sc3c(c2C(=O)O)CC(C)(C)OC3)c1
14 | 7.19 | CC1(C)Cc2c(sc(NC(=S)NC(=O)c3ccco3)c2C(=O)O)CO1
15 | 6.55 | CC1(C)Cc2c(sc(NC(=S)NC(=O)c3ccccc3F)c2C(=O)O)CO1
16 | 7.48 | O=C(NC(=S)Nc1sc2c(c1C(=O)O)CC1(CCCC1)OC2)c1ccccc1
17 | 7.46 | CCC1(C)Cc2c(sc(NC(=S)NC(=O)c3ccccc3)c2C(=O)O)CO1 (centres undefined)
18 | 6.42 | Cc1ccccc1C(=O)NC(=S)Nc1sc2c(c1C(=O)O)CC(C)(C)OC2
19 | 7.28 | CC1(C)CCc2sc(NC(=S)NC(=O)c3ccccc3)c(C(=O)O)c2C1
20 | 7.68 | CC1(C)Cc2c(sc(NC(=S)NC(=O)c3ccccc3)c2C(=O)O)CO1
21 | 7.04 | CC1(C)Cc2c(sc(NC(=S)NC(=O)c3ccc(F)cc3)c2C(=O)O)CO1

Same assay, conditions: bead-based flow cytometry, Bodipy-FL-GTP binding, EDTA; at 100 µM (top of the series)

Row | % response (binding remaining) | Compound
22 | inactive | CC1(C)Cc2c(sc(NC(=S)Nc3ccccc3)c2C(=O)O)CO1
23 | inactive | CC1(C)Cc2c(sc(NC(=S)NC(=O)c3cccc(Br)c3)c2C(=O)O)CO1
24 | inactive | COc1ccccc1C(=O)NC(=S)Nc1sc2c(c1C(=O)O)CC(C)(C)OC2
